# How the values were obtained:
# Type in all cases: binding
# [1] = molecular target: T1, AalbOBP39 (Aedes albopictus, UniProt M4W733); assay: 1-NPN competitive fluorescence displacement; conditions: 20 mM sodium acetate, pH 7.4, 25 C; 25 ug/ml protein; ligand 6.4-19.2 uM; 30.4 uM 1-NPN
# T1 construct: 6xHis-tag fusion, pET-22b(+), E. coli BL21 (DE3); Ni-NTA and gel filtration
# T1 sequence (M4W733 19-143): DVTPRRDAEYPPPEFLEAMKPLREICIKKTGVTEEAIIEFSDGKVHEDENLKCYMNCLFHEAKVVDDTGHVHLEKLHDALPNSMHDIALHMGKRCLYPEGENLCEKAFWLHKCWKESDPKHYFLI
# [2] = molecular target: T2, AalbOBP37 (Aedes albopictus, UniProt M4VP05); assay: 1-NPN competitive fluorescence displacement; conditions: 20 mM sodium acetate, pH 7.4, 25 C; 25 ug/ml protein; ligand 6.4-19.2 uM; 32 uM 1-NPN
# T2 construct: 6xHis-tag fusion, pET-22b(+), E. coli BL21 (DE3); Ni-NTA and gel filtration
# T2 sequence (M4VP05 19-149 limits assumed): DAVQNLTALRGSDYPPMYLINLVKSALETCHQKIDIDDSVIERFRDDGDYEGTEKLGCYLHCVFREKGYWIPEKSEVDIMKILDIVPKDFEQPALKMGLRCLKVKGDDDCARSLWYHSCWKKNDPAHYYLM
# [3] = molecular target: T2, AalbOBP37; assay: direct fluorescence titration; conditions: 20 mM sodium acetate, pH 7.4, 25 C; 25 ug/ml protein; excitation 337 nm; reporter ligand
# [4] = molecular target: T1, AalbOBP39; assay: direct fluorescence titration; conditions: 20 mM sodium acetate, pH 7.4, 25 C; 25 ug/ml protein; excitation 337 nm; reporter ligand
smiles,measurement,setting,value
C=CC(O)CCCCC (stereo not shown) [1-octen-3-ol],normalized 1-NPN fluorescence,[1],AalbOBP39 showed relatively low affinity to DEET and 1-octen-3-ol
same,normalized 1-NPN fluorescence,[2],AalbOBP37 showed high affinity to DEET and 1-octen-3-ol
CCN(CC)C(=O)c1cccc(C)c1 [DEET],normalized 1-NPN fluorescence,[1],AalbOBP39 showed relatively low affinity to DEET and 1-octen-3-ol
same,normalized 1-NPN fluorescence,[2],AalbOBP37 showed high affinity to DEET and 1-octen-3-ol
c1ccc(Nc2cccc3ccccc23)cc1 [N-phenyl-1-naphthylamine],direct fluorescence titration,[3],"only target OBPs could bind 1-NPN, which showed increasing fluorescent intensity"
same,direct fluorescence titration,[4],"only target OBPs could bind 1-NPN, which showed increasing fluorescent intensity"
c1ccc2[nH]ccc2c1 [indole],normalized 1-NPN fluorescence,[1],AalbOBP37 and AalbOBP39 exhibited relatively strong binding to both indole and skatole
same,normalized 1-NPN fluorescence,[2],AalbOBP37 and AalbOBP39 exhibited relatively strong binding to both indole and skatole
Cc1c[nH]c2ccccc12 [skatole],normalized 1-NPN fluorescence,[1],AalbOBP37 and AalbOBP39 exhibited relatively strong binding to both indole and skatole
same,normalized 1-NPN fluorescence,[2],AalbOBP37 and AalbOBP39 exhibited relatively strong binding to both indole and skatole
